Converted amounts (≈) assume the structure as drawn. Where two headings read alike, the source gives them in different places.
What was measured:
Format in all cases: cell-based
[1] = system: Streptococcus pyogenes 1079; test: MIC, microtiter broth dilution (NCCLS M100-S14), S. pyogenes 1079 (ermB)
In short: (§1)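 Where available, resistant strains were tested alongside the susceptible parent they derive from. The MIC, determined by tray-based broth dilution and NCCLS M100-S14 interpretation, served as the comparison value.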

[2] = system: Streptococcus pneumoniae 1016; test: MIC, microtiter broth dilution (NCCLS M100-S14), S. pneumoniae 1016 (susceptible)
In short: as §1

[3] = system: Haemophilus influenzae 1218; test: MIC, microtiter broth dilution (NCCLS M100-S14), H. influenzae 1218 (susceptible)
In short: as §1

[4] = system: Streptococcus pneumoniae 1175; details: microtiter broth dilution
In short: as §1

[5] = system: Streptococcus pneumoniae 1095; details: microtiter broth dilution
In short: as §1

[6] = S. pneumoniae 1016 (susceptible)
[7] = H. influenzae 1218 (susceptible)

| SMILES | MIC S. pyogenes 1079 ([1]; Streptococcus pyogenes 1079) | MIC S. pneumo. 1016 ([2]; Streptococcus pneumoniae 1016) | MIC H. influenzae 1218 ([3]; Haemophilus influenzae 1218) | MIC S. pneumo. 1175 ([4]; Streptococcus pneumoniae 1175) | MIC S. pneumo. 1095 ([5]; Streptococcus pneumoniae 1095) | MIC S. pyogenes 1079 ([1]; S. pyogenes 1079 (ermB)) | MIC S. pneumo. 1016 [2, 6] | MIC H. influenzae 1218 [3, 7] | MIC S. pneumo. 1175 ([4]; S. pneumoniae 1175 (mefA)) | MIC S. pneumo. 1095 ([5]; S. pneumoniae 1095 (ermB)) |
| --- | --- | --- | --- | --- | --- | --- | --- | --- | --- | --- |
| CC[C@H]1OC(=O)[C@H](C)C(=O)[C@H](C)[C@@H](O[C@@H]2O[C@H](C)C[C@H](N(C)C)[C@H]2O)[C@](C)(OC)C[C@@H](C)C(=O)[C@H](C)[C@H]2N(CC3(C)CN(Cc4ccc5cccnc5c4)C3)C(=O)O[C@]12C [6.06] | >64.00 µg/mL | <0.06 µg/mL | 1 µg/mL (≈ 1.19 µM) | 0.5 µg/mL (≈ 0.597 µM) | 0.5 µg/mL (≈ 0.597 µM) | – | – | – | – | – |
| CC[C@H]1OC(=O)[C@H](C)C(=O)[C@H](C)[C@@H](O[C@@H]2O[C@H](C)C[C@H](N(C)C)[C@H]2O)[C@](C)(OC)C[C@@H](C)C(=O)[C@H](C)[C@H]2N(CC3(C)CN(Cc4cnc5ccccc5n4)C3)C(=O)O[C@]12C [6.07] | >64.00 µg/mL | <0.06 µg/mL | 4 µg/mL (≈ 4.77 µM) | 0.5 µg/mL (≈ 0.597 µM) | 1 µg/mL (≈ 1.19 µM) | – | – | – | – | – |
| CC[C@H]1OC(=O)[C@H](C)C(=O)[C@H](C)[C@@H](O[C@@H]2O[C@H](C)C[C@H](N(C)C)[C@H]2O)[C@](C)(OC)C[C@@H](C)C(=O)[C@H](C)[C@H]2N(CC3(C)CN(Cc4c[nH]c5ccc(F)cc45)C3)C(=O)O[C@]12C [6.08] | 16 µg/mL (≈ 19 µM) | <0.06 µg/mL | 0.5 µg/mL (≈ 0.593 µM) | 0.25 µg/mL (≈ 0.297 µM) | <0.06 µg/mL | – | – | – | – | – |
| CC[C@H]1OC(=O)[C@H](C)C(=O)[C@H](C)[C@@H](O[C@@H]2O[C@H](C)C[C@H](N(C)C)[C@H]2O)[C@](C)(OC)C[C@@H](C)C(=O)[C@H](C)[C@H]2N(CC3(C)CN(Cc4c[nH]nc4-c4ccccc4)C3)C(=O)O[C@]12C [6.09] | >64.00 µg/mL | <0.06 µg/mL | 0.5 µg/mL (≈ 0.587 µM) | 0.25 µg/mL (≈ 0.293 µM) | <0.06 µg/mL | – | – | – | – | – |
| CC[C@H]1OC(=O)[C@H](C)C(=O)[C@H](C)[C@@H](O[C@@H]2O[C@H](C)C[C@H](N(C)C)[C@H]2O)[C@](C)(OC)C[C@@H](C)C(=O)[C@H](C)[C@H]2N(CC3(C)CN(Cc4ccc5[nH]ccc5c4)C3)C(=O)O[C@]12C [6.10] | – | – | – | – | – | >64.00 µg/mL | <0.06 µg/mL | 1 µg/mL (≈ 1.21 µM) | 0.12 µg/mL (≈ 0.145 µM) | 0.25 µg/mL (≈ 0.303 µM) |
| CC[C@H]1OC(=O)[C@H](C)C(=O)[C@H](C)[C@@H](O[C@@H]2O[C@H](C)C[C@H](N(C)C)[C@H]2O)[C@](C)(OC)C[C@@H](C)C(=O)[C@H](C)[C@H]2N(CC3(C)CN(Cc4nc5ccccc5[nH]4)C3)C(=O)O[C@]12C.O=CO [6.11] | – | – | – | – | – | >64.00 µg/mL | <0.06 µg/mL | 1 µg/mL | <0.06 µg/mL | 0.25 µg/mL |
| CC[C@H]1OC(=O)[C@H](C)C(=O)[C@H](C)[C@@H](O[C@@H]2O[C@H](C)C[C@H](N(C)C)[C@H]2O)[C@](C)(OC)C[C@@H](C)C(=O)[C@H](C)[C@H]2N(CC3(O)CN(Cc4ccc5nccnc5c4)C3)C(=O)O[C@]12C [7.03] | – | – | – | – | – | >64.00 µg/mL | <0.06 µg/mL | 0.5 µg/mL (≈ 0.595 µM) | 0.12 µg/mL (≈ 0.143 µM) | 0.12 µg/mL (≈ 0.143 µM) |
| CC[C@H]1OC(=O)[C@H](C)C(=O)[C@H](C)[C@@H](O[C@@H]2O[C@H](C)C[C@H](N(C)C)[C@H]2O)[C@](C)(OC)C[C@@H](C)C(=O)[C@H](C)[C@H]2N(CC3(O)CN(Cc4c[nH]c5ncccc45)C3)C(=O)O[C@]12C [7.04] | – | – | – | – | – | 32 µg/mL (≈ 38.6 µM) | <0.06 µg/mL | 0.5 µg/mL (≈ 0.604 µM) | 1 µg/mL (≈ 1.21 µM) | <0.06 µg/mL |
| CCC1OC(=O)C(C)C(=O)C(C)C(OC2OC(C)CC(N(C)C)C2O)C(C)(OC)CC(C)C(=O)C(C)C2N(CC3(O)CN(C(=O)c4ccc5ncccc5c4)C3)C(=O)OC12C (centres unmarked) [7.05] | – | – | – | – | – | >64.00 µg/mL | <0.06 µg/mL | 1 µg/mL (≈ 1.17 µM) | 1 µg/mL (≈ 1.17 µM) | 2 µg/mL (≈ 2.34 µM) |
| CCC1OC(=O)C(C)C(=O)C(C)C(OC2OC(C)CC(N(C)C)C2O)C(C)(OC)CC(C)C(=O)C(C)C2N(CC3(O)CN(S(=O)(=O)c4cccc5cccnc45)C3)C(=O)OC12C (centres unmarked) [7.06] | – | – | – | – | – | >64.00 µg/mL | <0.06 µg/mL | 0.5 µg/mL (≈ 0.562 µM) | 0.5 µg/mL (≈ 0.562 µM) | 32 µg/mL (≈ 36 µM) |
| CC[C@H]1OC(=O)[C@H](C)C(=O)[C@H](C)[C@@H](O[C@@H]2O[C@H](C)C[C@H](N(C)C)[C@H]2O)[C@](C)(OC)C[C@@H](C)C(=O)[C@H](C)[C@H]2N(CC3(O)CN(Cc4nc(C)[nH]c4C)C3)C(=O)O[C@]12C [7.07] | – | – | – | – | – | >64.00 µg/mL | 0.12 µg/mL (≈ 0.149 µM) | 16 µg/mL (≈ 19.9 µM) | 4 µg/mL (≈ 4.96 µM) | 8 µg/mL (≈ 9.93 µM) |
| CC[C@H]1OC(=O)[C@H](C)C(=O)[C@H](C)[C@@H](O[C@@H]2O[C@H](C)C[C@H](N(C)C)[C@H]2O)[C@](C)(OC)C[C@@H](C)C(=O)[C@H](C)[C@H]2N(CC3(O)CN(Cc4cccc5nc[nH]c45)C3)C(=O)O[C@]12C [7.08] | – | – | – | – | – | >64.00 µg/mL | <0.06 µg/mL | 0.25 µg/mL (≈ 0.302 µM) | 0.25 µg/mL (≈ 0.302 µM) | <0.06 µg/mL |
| CC[C@H]1OC(=O)[C@H](C)C(=O)[C@H](C)[C@@H](O[C@@H]2O[C@H](C)C[C@H](N(C)C)[C@H]2O)[C@](C)(OC)C[C@@H](C)C(=O)[C@H](C)[C@H]2N(CC3(O)CN(Cc4c[nH]c(=O)[nH]c4=O)C3)C(=O)O[C@]12C [7.09] | – | – | – | – | – | >64.00 µg/mL | 0.5 µg/mL (≈ 0.608 µM) | 16 µg/mL (≈ 19.5 µM) | 16 µg/mL (≈ 19.5 µM) | 64 µg/mL (≈ 77.9 µM) |
| CC[C@H]1OC(=O)[C@H](C)C(=O)[C@H](C)[C@@H](O[C@@H]2O[C@H](C)C[C@H](N(C)C)[C@H]2O)[C@](C)(OC)C[C@@H](C)C(=O)[C@H](C)[C@H]2N(CC3(O)CN(Cc4ccc(-c5ncccn5)cc4)C3)C(=O)O[C@]12C [7.10] | – | – | – | – | – | >64.00 µg/mL | <0.06 µg/mL | 2 µg/mL (≈ 2.31 µM) | 1 µg/mL (≈ 1.15 µM) | 64 µg/mL (≈ 73.9 µM) |
| CC[C@H]1OC(=O)[C@H](C)C(=O)[C@H](C)[C@@H](O[C@@H]2O[C@H](C)C[C@H](N(C)C)[C@H]2O)[C@](C)(OC)C[C@@H](C)C(=O)[C@H](C)[C@H]2N(CC3(O)CN(Cc4ccno4)C3)C(=O)O[C@]12C [7.11] | – | – | – | – | – | >64.00 µg/mL | <0.06 µg/mL | 2 µg/mL (≈ 2.57 µM) | 0.5 µg/mL (≈ 0.642 µM) | 4 µg/mL (≈ 5.14 µM) |
| CC[C@H]1OC(=O)[C@H](C)C(=O)[C@H](C)[C@@H](O[C@@H]2O[C@H](C)C[C@H](N(C)C)[C@H]2O)[C@](C)(OC)C[C@@H](C)C(=O)[C@H](C)[C@H]2N(CC3(O)CN(Cc4ccc(-c5cncnc5)cc4)C3)C(=O)O[C@]12C [7.12] | – | – | – | – | – | >64.00 µg/mL | <0.06 µg/mL | 2 µg/mL (≈ 2.31 µM) | 0.5 µg/mL (≈ 0.577 µM) | >64.00 µg/mL |
